# According to patent US20090105218A1, “CRTH2 Receptor Ligands For Therapeutic Use” (7TM PHARMA A/S, priority 2004, published 2009):
# Biological target: T1, human CRTH2 receptor (Homo sapiens, UniProt Q9Y5Y4, V204A)
# T1 construct: expressed in transfected cells; host or cells: COS-7 (transient transfection)
# T1 sequence (Q9Y5Y4 1-395 V204A): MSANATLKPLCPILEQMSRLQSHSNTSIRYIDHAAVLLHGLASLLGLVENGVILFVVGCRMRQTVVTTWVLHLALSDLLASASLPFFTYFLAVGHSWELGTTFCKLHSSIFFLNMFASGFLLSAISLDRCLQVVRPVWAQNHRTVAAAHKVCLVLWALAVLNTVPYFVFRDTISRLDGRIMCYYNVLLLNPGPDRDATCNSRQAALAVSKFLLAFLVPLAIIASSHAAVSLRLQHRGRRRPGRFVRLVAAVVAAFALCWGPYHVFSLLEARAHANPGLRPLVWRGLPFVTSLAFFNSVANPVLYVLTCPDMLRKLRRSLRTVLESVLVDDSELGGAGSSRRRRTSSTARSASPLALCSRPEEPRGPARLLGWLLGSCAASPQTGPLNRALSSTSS
# Experiment: CRTH2 receptor binding assay ([3H]PGD2 competition on whole transfected cells)
# Conditions: competition binding with 0.1 nM [3H]PGD2, whole cells expressing CRTH2, 3 h at 4° C.
# Excerpt: Generation/origin of the cDNA Constructs. The coding sequence of the human CRTH2 receptor (genbank accession no NM_004778) was amplified by PCR from a human hippocampus cDNA library and inserted into the pcDNA3.1(+) expression vector (invitrogen) via 5′ HindIII and 3′ EcoRI. The sequence identity of the construct was verified by restriction endonuclease digests and sequencing in both directions on an ABI Prism (Applied Biosystems, Foster City, Calif.).
# Cell Culture and Transfection. COS-7 cells were grown in Dulbecco's modified Eagle's medium (DMEM) 1885 supplemented with 10% fetal bovine serum, 100 units/ml penicillin, […] streptomycin, and kept at 37° C. in a 10% CO2 atmosphere. HEK293 cells were maintained in Minimum Essential medium (MEM) supplemented with 10% (v/v) heat inactivated fetal calf serum (HIFCS), 2 mM Glutamax™-I, 1% non essential amino acids (NEAA), 1% sodium pyruvate and 10 μg/ml gentamicin. For binding experiments, COS7 cells were transiently transfected with the CRTH2 receptor using a calcium phosphate-DNA coprecipitation method with the addition of chloroquine (as described by Holst B, Hastrup H, Raffetseder U, Martini L, Schwartz T W. J Biol. Chem. 2001 Jun. 8; 276(23):19793-9.)
# Binding assay. 24 h after transfection COS-7 cells were seeded into 96 well plates at a density of 30.000 cells/well. Competition binding experiments on whole cells were then performed about 18-24 h later using 0.1 nM [^3H]PGD2 (NEN, 172 Ci/mmol) in a binding buffer consisting of HBSS (GIBCO) and 10 mM HEPES. Competing ligands were diluted in DMSO which was kept constant at 1% (v/v) of the final incubation volume. Total and nonspecific binding were determined in the absence and presence of 10 μM PGD2. Binding reactions were routinely conducted for 3 h at 4° C. and terminated by 2 washes (100 μl each) with ice cold binding buffer. Radioactivity was determined by liquid scintillation counting in a TOPCOUNTER (Packard) following over night incubation in Microscint 20. Stable HEK293 cells were seeded at a density of 30.000 cells/well 18-24 h prior to the binding assay which was performed essentially as described for COS7 cells above. Determinations were made in duplicates.
# Curve analysis was performed with the GraphPadPrism software 3.0 (Graphpad Prism Inc., San Diego, USA) and IC50 values were calculated as a measure of the antagonistic potencies.
row,SMILES,IC50 [nM]
1,"O=C(/C=C/c1ccc(OC(F)(F)F)cc1)Nc1cccc(C(=O)Nc2ccccc2C(=O)O)c1 [B2, 2-{3-[(E)-3-(4-Trifluoromethoxyphenyl)acryloylamino]benzoylamino}benzoic acid]",< 500
2,"Cc1ccc(S(=O)(=O)Nc2cccc(C(=O)Nc3ccccc3C(=O)O)c2)cc1 [B5, 2-[3-(Toluene-4-sulfonylamino)benzoylamino]benzoic acid]",500 to 5000
3,"O=C(Nc1ccccc1C(=O)O)c1cccc(NS(=O)(=O)c2ccc(F)cc2)c1 [B7, 2-[3-(4-Fluoro-benzenesulfonylamino)benzoylamino]benzoic acid]",500 to 5000
4,"O=C(Nc1ccc(OC(F)(F)F)cc1)Nc1cccc(C(=O)Nc2ccccc2C(=O)O)c1 [B8, 2-{3-[3-(4-Trifluoromethoxyphenyl)ureido]benzoylamino}benzoic acid]",500 to 5000
5,"COc1ccc(C(=O)Nc2cccc(C(=O)Nc3ccccc3C(=O)O)c2)cc1OC [B9, 2-[3-(3,4-Dimethoxybenzoylamino)benzoylamino]benzoic acid]",500 to 5000
6,"O=C(COc1ccc(Cl)cc1)Nc1cc(C(=O)Nc2ccc(I)cc2C(=O)O)ccc1Cl [B12, 2-{4-Chloro-3-[2-(4-chloro-phenoxy)acetylamino]benzoylamino}-5-iodobenzoic acid]",500 to 5000
7,"O=C(Nc1ccc(Br)cc1C(=O)O)c1cccc(S(=O)(=O)Nc2ccc(Cl)nc2)c1 [B13, 5-Bromo-2-[3-(6-chloropyridin-3-ylsulfamoyl)benzoylamino]benzoic acid]",500 to 5000
8,"O=C(Nc1ccc(Br)cc1C(=O)O)c1cccc(S(=O)(=O)Nc2ccc(OC(F)(F)F)cc2)c1 [B14, 5-Bromo-2-[3-(4-trifluoromethoxyphenylsulfamoyl)benzoylamino]benzoic acid]",500 to 5000
9,"O=C(Nc1ccc(Br)cc1C(=O)O)c1cccc(S(=O)(=O)Nc2ccc(Br)cc2)c1 [B15, 5-Bromo-2-[3-(4-bromophenylsulfamoyl)benzoylamino]benzoic acid]",< 500
10,"O=C(Nc1ccc(Br)cc1C(=O)O)c1cccc(S(=O)(=O)Nc2cccc(Oc3ccccc3)c2)c1 [B16, 5-Bromo-2-[3-(3-phenoxyphenylsulfamoyl)benzoylamino]benzoic acid]",< 500
11,"O=C(Nc1ccc(Br)cc1C(=O)O)c1cccc(S(=O)(=O)Nc2ccc(I)cc2)c1 [B17, 5-Bromo-2-[3-(4-iodophenylsulfamoyl)benzoylamino]benzoic acid]",< 500
12,"O=C(Nc1ccccc1C(=O)O)c1ccc(Br)c(S(=O)(=O)Nc2ccc(Cl)nc2)c1 [B18, 2-[4-Bromo-3-(6-chloropyridin-3-ylsulfamoyl)benzoylamino]benzoic acid]",500 to 5000
13,"O=C(Nc1ccccc1C(=O)O)c1ccc(Br)c(S(=O)(=O)Nc2ccc(OC(F)(F)F)cc2)c1 [B19, 2-[4-Bromo-3-(4-trifluoromethoxyphenylsulfamoyl)benzoylamino]benzoic acid]",< 500
14,"Cc1c(S(=O)(=O)Nc2ccc(OC(F)(F)F)cc2)csc1C(=O)Nc1ccccc1C(=O)O [B20, 2-[3-Methyl-4-(4-trifluoromethoxyphenylsulfamoyl)thiophene-2-carbonylamino]benzoic acid]",< 500
15,"O=C(Nc1ccccc1C(=O)O)c1ccc(Br)c(S(=O)(=O)Nc2cccc(Oc3ccccc3)c2)c1 [B21, 2-[4-Bromo-3-(3-phenoxyphenylsulfamoyl)benzoylamino]benzoic acid]",< 500
16,"Cc1c(S(=O)(=O)Nc2cccc(Oc3ccccc3)c2)csc1C(=O)Nc1ccccc1C(=O)O [B22, 2-[3-Methyl-4-(3-phenoxyphenylsulfamoyl)thiophene-2-carbonylamino]-benzoic acid]",500 to 5000
17,"O=C(Nc1ccccc1C(=O)O)c1ccc(Br)c(S(=O)(=O)Nc2ccc(I)cc2)c1 [B23, 2-[4-Bromo-3-(4-iodophenylsulfamoyl)benzoylamino]benzoic acid]",< 500
18,"Cc1c(S(=O)(=O)Nc2ccc(I)cc2)csc1C(=O)Nc1ccccc1C(=O)O [B24, 2-[4-(4-Iodophenylsulfamoyl)-3-methylthiophene-2-carbonylamino]benzoic acid]",< 500
19,"Cc1c(S(=O)(=O)Nc2ccc(Br)cc2)csc1C(=O)Nc1ccccc1C(=O)O [B25, 2-[4-(4-Bromophenylsulfamoyl)-3-methylthiophene-2-carbonylamino]-benzoic acid]",< 500
20,"O=C(Nc1ccc(Br)cc1C(=O)O)c1ccc(Br)c(S(=O)(=O)Nc2ccc(Br)cc2)c1 [B26, 5-Bromo-2-[4-bromo-3-(4-bromophenylsulfamoyl)benzoylamino]benzoic acid]",< 500
21,"Cc1c(S(=O)(=O)Nc2ccc(Br)cc2)csc1C(=O)Nc1ccc(Br)cc1C(=O)O [B27, 5-Bromo-2-[4-(4-bromophenylsulfamoyl)-3-methylthiophene-2-carbonylamino]benzoic acid]",< 500
22,"O=C(Nc1ccc(Br)cc1C(=O)O)c1cccc(S(=O)(=O)Nc2ccc(Cl)cc2)c1 [B28, 5-Bromo-2-[3-(4-chlorophenylsulfamoyl)benzoylamino]benzoic acid]",< 500
23,"O=C(Nc1ccc(Br)cc1C(=O)O)c1cccc(S(=O)(=O)Nc2ccc(F)cc2)c1 [B29, 5-Bromo-2-[3-(4-fluorophenylsulfamoyl)benzoylamino]benzoic acid]",< 500
24,"O=C(Nc1ccc(Cl)cc1C(=O)O)c1cccc(S(=O)(=O)Nc2ccc(Cl)cc2)c1 [B30, 5-Chloro-2-[3-(4-chlorophenylsulfamoyl)benzoylamino]benzoic acid]",< 500
25,"O=C(Nc1ccc(Cl)cc1C(=O)O)c1cccc(S(=O)(=O)Nc2ccc(F)cc2)c1 [B31, 5-Chloro-2-[3-(4-fluorophenylsulfamoyl)benzoylamino]benzoic acid]",< 500
26,COc1cc(C(=O)Nc2cccc(C(=O)Nc3ccccc3C(=O)O)c2)cc(OC)c1OC [B34],500 to 5000
27,COc1cccc(OC)c1C(=O)Nc1cccc(C(=O)Nc2ccccc2C(=O)O)c1 [B38],500 to 5000

# Now from value to molecule:
row,IC50 [nM],SMILES
1,< 500,"O=C(COc1ccc(Cl)cc1)Nc1cccc(C(=O)Nc2ccccc2C(=O)O)c1 [B1, 2-{3-[2-(4-Chlorophenoxy)acetylamino]benzoylamino}benzoic acid]"
2,< 500,"O=C(COc1ccc(Cl)cc1Cl)Nc1cccc(C(=O)Nc2ccccc2C(=O)O)c1 [B3, 2-{3-[2-(2,4-Dichlorophenoxy)acetylamino]benzoylamino}-benzoic acid]"
3,500 to 5000,"O=C(CCc1ccccc1)Nc1cccc(C(=O)Nc2ccccc2C(=O)O)c1 [B4, 2-[3-(3-Phenylpropionylamino)benzoylamino]benzoic acid]"
4,500 to 5000,"C/C(=C\c1ccccc1)C(=O)Nc1cccc(C(=O)Nc2ccccc2C(=O)O)c1 [B6, 2-[3-((E)-2-Methyl-3-phenylacryloylamino)benzoylamino]benzoic acid]"
5,500 to 5000,"O=C(COCc1ccccc1)Nc1cccc(C(=O)Nc2ccccc2C(=O)O)c1 [B10, 2-[3-(2-Benzyloxyacetylamino)benzoylamino]benzoic acid]"
6,500 to 5000,"COc1ccc(C(=O)Nc2cccc(C(=O)Nc3ccccc3C(=O)O)c2)cc1 [B11, 2-[3-(4-Methoxybenzoylamino)benzoylamino]benzoic acid]"
7,< 500,Cc1ccc(OCC(=O)Nc2cccc(C(=O)Nc3ccccc3C(=O)O)c2)cc1C [B32]
8,500 to 5000,O=C(Nc1ccccc1C(=O)O)c1cccc(NC(=O)c2cccs2)c1 [B33]
9,> 5000,O=C(Nc1ccccc1C(=O)O)c1cccc(NC(=O)c2ccco2)c1 [B35]
10,< 500,O=C(Nc1ccccc1C(=O)O)c1cccc(NC(=O)C(c2ccccc2)c2ccccc2)c1 [B36]
11,500 to 5000,O=C(Cc1ccccc1)Nc1cccc(C(=O)Nc2ccccc2C(=O)O)c1 [B37]
12,500 to 5000,COc1ccc(OCC(=O)Nc2cccc(C(=O)Nc3ccccc3C(=O)O)c2)cc1 [B39]
13,< 500,CCCOc1ccc(C(=O)Nc2cccc(C(=O)Nc3ccccc3C(=O)O)c2)cc1 [B40]
14,< 500,CCCOc1cccc(C(=O)Nc2cccc(C(=O)Nc3ccccc3C(=O)O)c2)c1 [B41]
